Data taken from patent publication US9273184B1, “Synthesis of highly fluorinated amines for use in polymers and biomaterials” (University of Southern California, priority 2009, dated 2016).
Where a name gives a salt, the structure may show the parent alone.

Assay: 31P NMR evidence for guanidinium-phosphonate binding (addition of amphiphile or comparator to MePO3K2)
Details: for change of the 31P signal of the phosphonate on addition (shift and broadening, in words): FIGS. 11A-D
Text: Guanidinium binds to phosphonate through a salt bridge that is buttressed by a bidentate hydrogen bonding system FIG. 10. This interaction is generally stable within a wide range of pH values. Thus, guanidinium-functionalized amphiphiles (29a-c) should form complexes with phosphonates in aqueous buffer. We show here the interaction between amphipile (29a) and MePO3K2 using ^31P NMR, FIGS. 11A-D, which has been used as a probe for phosphate binding to several types of cations. […] This broadening effect is more pronounced as additional compound (29a) is added. The change in the shape of the peak is consistent with reduced tumbling associated with increased size or reversible association of compound (29a) with MePO3K2, which indicates complexation between the guanidinium species and the phosphonate group. […] Thus, guanidinium compound (29a) is not merely protonating the phosphonate in FIG. 11A. […] Urea is structurally similar to guanidinium and can potentially complex a phosphonate in a manner similar to compound (29a) (FIG. 10). In the presence of HCl, similar chemical behavior is expected when MePO3K2 is treated with urea as when it is treated with compound 29.

NC(N)=O [urea, Urea]
change of the 31P signal of the phosphonate on addition (shift and broadening, in words): do not broaden
31P Chemical shift of MePO3K2 (MePO3K2 + 1 eq urea + 2 eq HCl): 27.6 ppm
31P Half-Height Width of MePO3K2 (MePO3K2 + 1 eq urea + 2 eq HCl): 3.3 Hz
31P Chemical shift of MePO3K2 (MePO3K2 + 4 eq urea + 2 eq HCl): 27.7 ppm
31P Half-Height Width of MePO3K2 (MePO3K2 + 4 eq urea + 2 eq HCl): 3.6 Hz

Cl.N [NH4Cl]
change of the 31P signal of the phosphonate on addition (shift and broadening, in words): small downfield shift like HCl, but did not broaden the signal
31P Chemical shift of MePO3K2 (MePO3K2 + 1 eq of additive): 21.8 ppm
31P Half-Height Width of MePO3K2 (MePO3K2 + 1 eq of additive): 3.6 Hz
31P Chemical shift of MePO3K2 (MePO3K2 + 4 eq of additive): 22.1 ppm
31P Half-Height Width of MePO3K2 (MePO3K2 + 4 eq of additive): 4.2 Hz

Cl [HCl]
change of the 31P signal of the phosphonate on addition (shift and broadening, in words): remains sharp and shifts downfield
31P Chemical shift of MePO3K2 (MePO3K2 + 1 eq of additive): 27.8 ppm
31P Half-Height Width of MePO3K2 (MePO3K2 + 1 eq of additive): 3.8 Hz
31P Chemical shift of MePO3K2 (MePO3K2 + 2 eq of additive): 29.9 ppm
31P Half-Height Width of MePO3K2 (MePO3K2 + 2 eq of additive): 3.4 Hz
31P Chemical shift of MePO3K2 (MePO3K2 + 3 eq of additive): 30.4 ppm
31P Half-Height Width of MePO3K2 (MePO3K2 + 3 eq of additive): 3.4 Hz
31P chemical shift of protonated MePO3H2 (in the presence of HCl, FIG. 11B, equivalents not given): 30.4 ppm
